Test results from patent US12084680B2, “Methods for efficient derivation of human motor neurons from diverse spinal regions” (Wisconsin Alumni Research Foundation, priority 2016, dated 2024).

How the values were obtained:
[1] = tested on: H9 hESCs; experiment: Induction of NKX6.1+/PAX6+/OLIG2+ motor neuron progenitors from cervical neuromesoderm (flow cytometry, immunocytochemistry); type: cell-based, human
Procedure: To begin, we sequentially differentiated H9 hESCs in E6 media for 1 day, and FGF8b (200 ng/mL) for 1 day, and FGF8b and CHIR (3 μM) for 2 days to generate cervical neuromesoderm (FIGS. 5A-5B). Then, we screened the effects of CHIR, PM, and SHH treatment on NKX6.1^+/PAX6^+/OLIG2^+ motor neuron progenitor induction while transitioning to media containing 1 μM RA (FIGS. 5A-5D). Prior to the addition of RA, NKX6.1 was expressed in the cervical neuromesodermal state at day 4 (80±18% NKX6.1^+; data not shown), likely due to the CHIR-induced Wnt/β-catenin signaling (FIGS. 4A-4H). Transitioning the neuromesodermal progenitors to RA-containing media for 2 days induced HOXB4^+/HOXC6^+/HOXC9^−/HOXD10^−/PAX6^+ cervical neuroectoderm in all conditions (FIGS. 5B-5C), as expected. However, without co-activation of SHH signaling by PM or SHH, NKX6.1 expression was quickly lost by day 6 (97±1% PAX6^+, 17±3% NKX6.1^+) (FIG. 5C). […] To bolster this claim, we also analyzed the abundance of full-length GLI3 versus its truncated repressor form by western blot. […] Thus, Wnt/β-catenin signaling is necessary to induce ventral identity, but its continuous activation during OLIG2 induction by SHH signaling is detrimental to motor neuron differentiation, possibly due to activation of the GLI3 repressor.
Next, we tested conditions where CHIR was removed after transitioning to media containing RA (1 μM), PM (2 μM), and SHH (2 μg/mL) (FIGS. 5A-5C).
Since NKX6.1 is a pre-requisite to OLIG2 expression, we hypothesized that the Wnt/β-catenin signaling-dependent NKX6.1 expression levels may still be too low for efficient OLIG2^+ motor neuron progenitor induction. Therefore, the concentration of CHIR was boosted to 6 or 9 μM for 6 h immediately prior to transitioning to E6 medium containing RA, PM, and SHH without CHIR (FIG. 5A). The 9 μM CHIR boost followed by a transition to media containing 1 μM RA, 2 μM PM, and 2 μg/mL SHH yielded optimal motor neuron progenitor cultures with highly uniform NKX6.1, OLIG2, and PAX6 expression (96±1%, 85±9%, and 97±2%, respectively) (FIGS. 5C-5D).
hESCs were dissociated with accutase (Thermo Fisher Scientific) and reseeded at 1×10^5 cells/cm2 in E8 medium containing 10 μM ROCK inhibitor (Y27632; R&D Systems) on 6-well polystyrene tissue culture plates coated with 100 μg/mL poly-L-ornithine (PLO; Sigma) and 8 μg/well VTN-NC. The timelines and relevant growth factors/small molecules for all differentiation procedures are described in detail in the Results section and its accompanying figures. Cells were differentiated for various amounts of time in E6 medium containing the same insulin concentration as E8 medium as described above with varying combinations of soluble factors (product information and concentration ranges are found in Table 2). For neuromesodermal induction and HOX propagation, cells were sequentially cultured with FGF8b, CHIR99021 (CHIR), GDF11, and dorsomorphin (DM) as previously described. Briefly, to initiate the neuromesodermal state, cells were changed to E6 medium followed by addition of FGF8b (200 ng/ml) 24 h later. To generate cervical neuromesodermal progenitors, cells were washed with PBS, treated with accutase, and re-seeded in E6 medium containing 200 ng/ml FGF8b, 3 μM CHIR, and 10 μM Y27632 on VTN-NC-coated plates at a density of 1.5×10^5 cells/cm^2 for 48 h. To generate thoracic neuromesodermal progenitors, cells were passaged again after 72 h of CHIR treatment and re-seeded at different densities as described in the text.
Thoracic identity was reached after an additional 24 h. Then, to reach the lumbosacral level, cells were given 30 ng/ml GDF11 and 1 μM DM for an additional 48 h. For neuroectoderm induction and generation of OLIG2^+ progenitors, FGF8b was removed at the designated time points and the concentration of CHIR was increased for 6 h as described in the text, followed by a transition to media containing RA, PM, and SHH for a period of 48 h. […]

[2] = tested on: GLI3; experiment: Western blot of full-length versus truncated repressor GLI3; type: cell-based, human; conditions: cultures maintained in 3 and 6 μM CHIR during PM/SHH exposure, day 6
Procedure: To begin, we sequentially differentiated H9 hESCs in E6 media for 1 day, and FGF8b (200 ng/mL) for 1 day, and FGF8b and CHIR (3 μM) for 2 days to generate cervical neuromesoderm (FIGS. 5A-5B). Then, we screened the effects of CHIR, PM, and SHH treatment on NKX6.1^+/PAX6^+/OLIG2^+ motor neuron progenitor induction while transitioning to media containing 1 μM RA (FIGS. 5A-5D). Prior to the addition of RA, NKX6.1 was expressed in the cervical neuromesodermal state at day 4 (80±18% NKX6.1^+; data not shown), likely due to the CHIR-induced Wnt/β-catenin signaling (FIGS. 4A-4H). Transitioning the neuromesodermal progenitors to RA-containing media for 2 days induced HOXB4^+/HOXC6^+/HOXC9^−/HOXD10^−/PAX6^+ cervical neuroectoderm in all conditions (FIGS. 5B-5C), as expected. However, without co-activation of SHH signaling by PM or SHH, NKX6.1 expression was quickly lost by day 6 (97±1% PAX6^+, 17±3% NKX6.1^+) (FIG. 5C). […] To bolster this claim, we also analyzed the abundance of full-length GLI3 versus its truncated repressor form by western blot. […]
Cells were washed with cold PBS, harvested with accutase, and pelleted by centrifugation. […] Immunostained bands were detected using the SuperSignal West Pico Chemiluminescent Substrate kit (Thermo Fisher Scientific). […]

[3] = 9 μM CHIR boost 6 h, then 1 μM RA, 2 μM PM, 2 μg/mL SHH without CHIR, day 6
[4] = CHIR continued at 3 μM with RA, PM 2 μM, SHH 2 μg/mL, day 6
[5] = CHIR continued at 6 μM with RA, PM, SHH, day 6

`Cc1c[nH]c(-c2cnc(NCCNc3ccc(C#N)cn3)nc2-c2ccc(Cl)cc2Cl)n1` [CHIR, CHIR99021] was tested. Which NKX6.1 expression [1, 3] did it give?
Its NKX6.1 expression is 96±1%.

What about the OLIG2 expression [1, 3] of the same molecule?
The OLIG2 expression was 85±9%.

What about the PAX6 expression [1, 3] of the same molecule?
Its PAX6 expression is 97±2%.

What about the “NKX6.1 and PAX6/SOX2 neuroectoderm marker expression” value [1, 4] of the same molecule?
Its value is “uniformly expressed”.

What about the OLIG2 induction [1, 4] of the same molecule?
The OLIG2 induction was “minimal OLIG2 was induced”.

And the OLIG2 induction [1, 5]?
The OLIG2 induction was “OLIG2 was still not induced”.

And the PAX6 expression [1, 5]?
The PAX6 expression was “PAX6 expression was diminished”.

And the PAX7 detection [1, 5]?
Its PAX7 detection is “no PAX7 was detected”.

And the “NKX6.1+ cells in cervical neuromesodermal state” value ([1]; FGF8b 200 ng/mL and CHIR 3 μM for 2 days, day 4, before RA)?
The value was 80±18%.

And the “GLI3 truncated repressor form level (western blot)” value [2]?
The value was “increased levels of the GLI3 truncated repressor form”.
